# From article PMC3012033 (Lipids in Health and Disease, 2010)
# Tests used:
# [1] = Bone marrow and spleen cellularity; type: in vivo, C57BL/6J mice
# Experimental: (§1) C57BL/6J mice, weighing about 20 g and 60 days older were used. After the experiments, blood was collected from the axillary plexus. The bone marrow was collected from the femur of the same animals. The spleen cellularities were also analyzed.
# The animals were first anesthetized, exsanguinated and sacrificed by cervical dislocation. The bone marrow was obtained by washing the cavity with the culture femoral McCoy's 5A modified (Sigma, Chemical Company, USA) ice cream.
# Sleen cells were collected by the same sacrificed animals of hematological procedures. The spleen was transferred to plastic Petri dish with iced culture McCoy's 5A modified (Sigma, Chemical Company, USA) containing 10% EDTA, used to collect the cells. In the Petri dish, the spleen capsule was broken in one of its ends, with the aid of two needles bent into "L", and fixed in syringes. The cells were gently removed from the dish by the dissociation method. The suspension was homogenized in the Petri dish with standard Pasteur pipette to complete cell separation and transferred to conical plastic tube and kept in an ice bath. The cells obtained from the spleen were quantified in a Neubauer chamber hemocytometer after dilution of 1:500 liquid Turk, diluent composed of 1% solution of glacial acetic acid. For morphological evaluation, the slides were performed in cell suspension cellspin cytocentrifuge (Incibras) and subsequently submitted to the staining of May-Grunwald GIENS, modified by Rosenfeld, and peroxidase method modified by Graham Knoll, for identification and quantification of different types cell.
# [2] = test system: B16F10 melanoma cells; assay: Cell cycle analysis by flow cytometry (propidium iodide); type: cell-based, mice; conditions: 0.8 μM
# Experimental: Cell cycle analysis was determined by flow cytometry at the Federal State University of Paraná. Briefly, after the different treatments, 2 × 10^6 cells were trypsinized, washed three times with PBS, fixed in 70% ethanol, and stained with Propidium Iodide (PI) solution. All analyses were done using a FACScalibur flow cytometer (Becton Dickinson, San Jose, CA). The red fluorescence of PI was collected through a 585/42-nm band -pass filter, and the fluorescence signals were measured in a linear scale of 1024 channels. For each sample, at least 10000 events were acquired and the data were analyzed using an appropriate software (CELLQuest, Becton Dickinson, San Jose, CA).
# [3] = test system: B16F10 melanoma; assay: Tumor growth and survival of B16F10 melanoma bearing mice; type: in vivo, C57Bl/6J mice
# Experimental: In vivo experiments were conducted in male C57BL/6J mice (18-25 g), housed at 22 ± 2°C under a 12/12 h light/dark cycle with free access to food and water until use. The animals were acclimatized to the laboratory for at least 24 h before testing and were used only once. All animal handling and experimental procedures were conducted with prior approval of the ethics committee on animal use of the University of São Paulo Medical School Hospital Ethics Committee.
# To mice experimentations, the simvastatin compressed powders were macerated and watery solutions were made.
# All animal's procedures were made in Butantan Institute with supervision of Dr. Durvanei Augusto Maria, in accordance with University of Sao Paulo Medical School Hospital Ethics Committee. Briefly, 5 × 10^4 B16F10 melanoma cells were injected subcutaneously into C57Bl/6J mice. […] Tumors were measured using a caliper and volume was estimated using the formula V = (small diameter)^2 × (large diameter)/¾ πR [13].
# Tumor growth data were analyzed by Student's t test, survival rate data were analyzed by Kaplan-Meyer curves and hematological data were analyzed by one-way ANOVA with Tukey posttest using Graph Pad Prism Stat version 4.0 for Windows.
# [4] = Blood cells evaluation; type: in vivo, C57BL/6J mice; conditions: mean ± S.E.M., seven animals
# Experimental: as §1
# Blood samples were collected twenty days after tumor implant from the axillary plexus of the animals in all experimental groups, which were used to perform blood and reticulocyte count, according to the techniques used in the Laboratory of Experimental Hematology of FCF/USP [14].
# [5] = test system: B16F10 mice melanoma cell line; assay: B16F10 melanoma cell viability (MTT, Trypan Blue exclusion); type: cell-based
# Experimental: B16F10 mice melanoma cell line was generously provided by Dr. Roger Chammas (USP, São Paulo, Brazil). Cells were routinely cultured in RPMI 1640 medium supplemented with 10% fetal bovine serum (FBS) at 37°C in a humidified atmosphere containing 5% CO2.
# To dissolve the crystals of Formazan was used dimethylsulfoxide (DMSO). Quantification was obtained by the absorbance reading at a wavelength of 450 nm to 690 nm. Cell viability was also evaluated by the method of Trypan Blue exclusion (Invitrogen, Carlsbad, CA), by direct counting in a hemocytometer.
# [6] = mice bearing melanoma treated with same doses
# [7] = mice without tumor (Control-Simvastatin), vs control
# [8] = melanoma bearing mice (Tumor-Simvastatin), twenty days after implant
# [9] = mice without tumor (Control-Simvastatin)
structure (smiles),measurement,setting,value
"CCC(C)(C)C(=O)O[C@H]1C[C@@H](C)C=C2C=C[C@H](C)[C@H](CC[C@@H]3C[C@@H](O)CC(=O)O3)[C@H]21 [simvastatin, Simvastatin]",Femoral Bone Marrow cellularity,[1]; [6],equal
same,Spleen cellularity,[1]; [6],equal
same,Femoral Bone Marrow cellularity,[1]; [7],decreased
same,Spleen cellularity,[1]; [7],decreased
same,cell cycle effect,[2]; 24 hours,early cell cycle arrest in G0/G1
same,hypodiploid cells,[2]; after G0/G1 arrest,increase of hypodiploid cells
same,final tumor sizing compared to the controls,"[3]; 5 mg/Kg/day orally for 10 days, started 10 days after inoculation",25%
same,treated mice with a survival of 28 days (Kaplan-Meyer),"[3]; 5 mg/Kg/day orally, no survival mice of control group on day 24",Twenty-five percent
same,total tumoral regression,"[3]; melanoma bearing mice, tumor re-started to grow when treatment aborted",not developed
same,tumor inhibition (B16F10 tumor growth),[3]; over 10 days period,approximately 75%
same,Eosinophils,[4]; [8],8.5 ± 3.0 %
same,Hemoglobin,[4]; [8],12.4 ± 1.2 g/dL
same,Total Leukocytes,[4]; [8],3.9 ± 0.8 * 103/mm3
same,Eosinophils,[4]; [9],4.7 ± 1.4%
same,Hemoglobin,[4]; [9],12.8 ± 1.9 g/dL
same,Total Leukocytes,[4]; [9],3.3 ± 0.1 * 103/mm3
same,toxic effect on B16F10 cells,[5]; 0.8 μM,toxic effect
same,toxic effect on B16F10 cells,[5]; 1.6 μM,toxic effect
same,toxicity (cell death) in the first 24 h of incubation,"[5]; 1.6 μM, first 24 h",massive death
same,"number of viable cells, trypan blue assay","[5]; cultured melanoma, after 48 hours, vs vehicle-treated",reduces the number of viable cells
